According to patent US8143290B2, “Chemical compounds 572” (AstraZeneca AB, priority 2006, dated 2012):

The compounds below were run against T1, recombinant human GR (Homo sapiens, UniProt P04150) (assay: Human Glucocorticoid Receptor (GR) Assay, fluorescence polarization). Conditions: GS Red tracer, incubated 2 h at r.t., XLfit model 205, read-out: GRhuFL_FP_v2 Mean IC50.
T1 construct: purchased Panvera/Invitrogen P2812 (kit P2893)
T1 sequence (P04150 1-777): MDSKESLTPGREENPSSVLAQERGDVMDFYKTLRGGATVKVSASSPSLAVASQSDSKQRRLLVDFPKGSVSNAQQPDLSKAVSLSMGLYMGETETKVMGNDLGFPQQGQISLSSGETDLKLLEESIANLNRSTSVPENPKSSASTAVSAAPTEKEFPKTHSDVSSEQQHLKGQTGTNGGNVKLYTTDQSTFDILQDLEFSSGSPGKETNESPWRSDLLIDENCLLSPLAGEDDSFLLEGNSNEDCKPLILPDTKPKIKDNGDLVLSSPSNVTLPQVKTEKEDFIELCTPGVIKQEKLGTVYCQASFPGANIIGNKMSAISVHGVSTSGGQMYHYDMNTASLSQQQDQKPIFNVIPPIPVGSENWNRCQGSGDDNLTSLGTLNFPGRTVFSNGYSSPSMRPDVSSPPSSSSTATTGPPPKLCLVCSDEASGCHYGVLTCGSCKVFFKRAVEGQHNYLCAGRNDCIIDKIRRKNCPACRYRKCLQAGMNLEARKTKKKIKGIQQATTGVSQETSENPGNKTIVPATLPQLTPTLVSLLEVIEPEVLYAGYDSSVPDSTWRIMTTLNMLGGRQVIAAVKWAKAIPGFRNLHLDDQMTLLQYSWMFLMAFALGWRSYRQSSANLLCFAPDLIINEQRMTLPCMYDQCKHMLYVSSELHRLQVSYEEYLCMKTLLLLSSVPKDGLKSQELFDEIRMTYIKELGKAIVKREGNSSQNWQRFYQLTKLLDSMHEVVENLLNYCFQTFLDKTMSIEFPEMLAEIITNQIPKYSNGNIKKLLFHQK
Format: binding
Description: Human Glucocorticoid Receptor (GR) Assay
The assay is based on a commercial kit from Panvera/Invitrogen (Part number P2893). The assay technology is fluorescence polarization. […] The GR and Stabilizing Peptide reagents are stored at −70° C. while the GS Red is stored at −20° C. Also included in the kit are 1M DTT (Panvera, Part number P2325, stored at −20° C.) and GR Screening buffer 10× (Panvera, Part number P2814, stored at −70° C. initially but once thawed stored at r.t.). Avoid repeated freeze/thaws for all reagents. The GR Screening buffer 10× comprises 100 mM potassium phosphate, 200 mM sodium molybdate, 1 mM EDTA and 20% DMSO.
0% control was 100% DMSO and 100% control was […] Dexamethasone. Background solution (8 μL; assay buffer 10×, Stabilizing Peptide, DTT and ice cold MQ water) was added to the background wells. GS Red solution (7 μL; assay buffer 10×, Stabilizing Peptide, DTT, GS Red and ice cold water) was added to all wells except background wells. GR solution (7 μL; assay buffer 10×, Stabilizing Peptide, DTT, GR and ice cold water) was added to all wells. The plate was sealed and incubated in a dark at r.t. for 2 h.

SMILES | IC50
CC(=O)N[C@@H](C)[C@H](Oc1cc2cnn(-c3ccc(F)cc3)c2cc1Cl)c1ccc(F)cc1 (single isomer, unassigned) [Example 101, N-[(1S*,2R*)-1-[6-chloro-1-(4-fluorophenyl)indazol-5-yl]oxy-1-(4-fluorophenyl)propan-2-yl]acetamide] | 15 nM
CC(=O)N[C@@H](C)[C@H](Oc1cc2cnn(-c3ccc(F)cc3)c2cc1Cl)c1ccc(F)cc1 (single isomer, unassigned) [Example 102, N-[(1R*,2S*)-1-[6-chloro-1-(4-fluorophenyl)indazol-5-yl]oxy-1-(4-fluorophenyl)propan-2-yl]acetamide] | 2.5 nM
CC(C)(C)C(=O)NC(C(Oc1ccc2c(cnn2-c2ccc(F)cc2)c1)c1ccccc1)C(F)(F)F (single isomer, unassigned) [Example 147D1E1, N-(1,1,1-trifluoro-3-(1-(4-fluorophenyl)-1H-indazol-5-yloxy)-3-phenylpropan-2-yl)pivalamide] | 97 nM
CC(C)(C)C(=O)NC(C(Oc1ccc2c(cnn2-c2ccc(F)cc2)c1)c1ccccc1)C(F)(F)F (single isomer, unassigned) [Example 147D2E1, N-(1,1,1-trifluoro-3-(1-(4-fluorophenyl)-1H-indazol-5-yloxy)-3-phenylpropan-2-yl)pivalamide] | 7.4 nM
CC(C)(C)C(=O)NC(C(Oc1ccc2c(cnn2-c2ccc(F)cc2)c1)c1ccccc1)C(F)(F)F (single isomer, unassigned) [Example 147D2E2, N-(1,1,1-trifluoro-3-(1-(4-fluorophenyl)-1H-indazol-5-yloxy)-3-phenylpropan-2-yl)pivalamide] | 12 nM
COc1ccc(F)cc1[C@@H](Oc1ccc2c(cnn2-c2ccc(F)cc2)c1)[C@H](C)NC(=O)C1(C)CC1 (stereo in doubt) [Example 268, N-[(1R,2S)-1-(5-fluoro-2-methoxy-phenyl)-1-[1-(4-fluorophenyl)indazol-5-yl]oxy-propan-2-yl]-1-methyl-cyclopropane-1-carboxamide] | 3.1 nM
CSc1ccc([C@@H](Oc2ccc3c(cnn3-c3ccc(F)cc3)c2)[C@H](C)NC(=O)COC(C)=O)cc1 [Example 10, N-[(1R,2S)-1-[1-(4-fluorophenyl)indazol-5-yl]oxy-1-(4-methylsulfanylphenyl)propan-2-yl]carbamoylmethyl acetate] | 2.4 nM
CSc1ccc([C@@H](Oc2ccc3c(cnn3-c3ccc(F)cc3)c2)[C@H](C)NC(=O)CO)cc1 [Example 11, N-[(1R,2S)-1-[1-(4-fluorophenyl)indazol-5-yl]oxy-1-(4-methylsulfanylphenyl)propan-2-yl]-2-hydroxy-acetamide] | 2.1 nM
C[C@H](NC(=O)C(F)(F)F)[C@H](Oc1ccc2c(cnn2-c2ccc(F)cc2)c1)c1ccc(SC2CC2)cc1 [Example 15, N-[(1R,2S)-1-(4-cyclopropylsulfanylphenyl)-1-[1-(4-fluorophenyl)indazol-5-yl]oxy-propan-2-yl]-2,2,2-trifluoro-acetamide] | 6.8 nM
C[C@H](NC(=O)CO)[C@H](Oc1ccc2c(cnn2-c2ccc(F)cc2)c1)c1ccccc1 [Example 16, N-[(1R,2S)-1-[1-(4-fluorophenyl)indazol-5-yl]oxy-1-phenyl-propan-2-yl]-2-hydroxy-acetamide] | 2.4 nM
C[C@H](NC(=O)CO)[C@H](Oc1ccc2c(cnn2-c2ccc(F)cc2)c1)c1ccc2ccccc2c1 [Example 21, N-[(1R,2S)-1-[1-(4-fluorophenyl)indazol-5-yl]oxy-1-naphthalen-2-yl-propan-2-yl]-2-hydroxy-acetamide] | 3.2 nM

More lines, in order of falling IC50, values ahead:

IC50 | SMILES
89 nM | C[C@H](NC(=O)C(F)(F)F)[C@H](COc1ccccc1)Oc1ccc2c(cnn2-c2ccc(F)cc2)c1 (racemic) [Example 70, 2,2,2-Trifluoro-N-[(2RS,3SR)-3-[1-(4-fluorophenyl)indazol-5-yl]oxy-4-phenoxy-butan-2-yl]acetamide]
76 nM | C[C@@H](NC(=O)C(F)(F)F)[C@H](COc1ccccc1)Oc1ccc2c(cnn2-c2ccc(F)cc2)c1 (single isomer, unassigned) [Example 69, 2,2,2-trifluoro-N-[2R*,3R*-3-[1-(4-fluorophenyl)indazol-5-yl]oxy-4-phenoxy-butan-2-yl]acetamide]
24 nM | COCC(=O)N[C@@H](CO)C(Oc1ccc2c(cnn2-c2ccc(F)cc2)c1)c1cccc(F)c1 (mixture of isomers) [Example 113, N-[(1S)-2-(3-Fluorophenyl)-2-{[1-(4-fluorophenyl)-1H-indazol-5-yl]oxy}-1-(hydroxymethyl)ethyl]-2-methoxyacetamide]
24 nM | CC(C)(C)C(=O)NC(C(Oc1ccc2c(cnn2-c2ccc(F)cc2)c1)c1ccccc1)C(F)(F)F (single isomer, unassigned) [Example 147D1E2, N-(1,1,1-trifluoro-3-(1-(4-fluorophenyl)-1H-indazol-5-yloxy)-3-phenylpropan-2-yl)pivalamide]
9.2 nM | CC(=O)NC(C)C(Oc1cc2cnn(-c3ccc(F)cc3)c2cc1Cl)c1ccc(F)cc1 (racemic) [Example 100, N-[(1RS,2SR)-1-[6-chloro-1-(4-fluorophenyl)indazol-5-yl]oxy-1-(4-fluorophenyl)propan-2-yl]acetamide]
5.9 nM | COC(=O)N[C@@H](C)[C@H](Oc1ccc2c(cnn2-c2ccc(F)cc2)c1)c1ccccc1 [Example 4, Methyl ((1S,2R)-2-{[1-(4-fluorophenyl)-1H-indazol-5-yl]oxy}-1-methyl-2-phenylethyl)carbamate]
4.7 nM | CCc1cccc([C@@H](Oc2ccc3c(cnn3-c3ccc(F)cc3)c2)[C@H](C)NC(=O)C(F)(F)F)c1 [Example 22, N-[(1R,2S)-1-(3-ethylphenyl)-1-[1-(4-fluorophenyl)indazol-5-yl]oxy-propan-2-yl]-2,2,2-trifluoro-acetamide]
3.8 nM | C[C@H](NC(=O)C(F)(F)F)[C@H](Oc1cc2cnn(-c3ccc(F)cc3)c2cc1Cl)c1ccc(F)cc1 (racemic) [Example 99, N-[(1RS,2SR)-1-[6-chloro-1-(4-fluorophenyl)indazol-5-yl]oxy-1-(4-fluorophenyl)propan-2-yl]-2,2,2-trifluoro-acetamide]
3.7 nM | Cc1cc(C)c([C@@H](Oc2ccc3c(cnn3-c3ccc(F)cc3)c2)[C@H](C)NC(=O)C(C)(C)C)cc1C (stereo in doubt) [Example 267, N-[(1R,2S)-1-[1-(4-fluorophenyl)indazol-5-yl]oxy-1-(2,4,5-trimethylphenyl)propan-2-yl]-2,2-dimethyl-propanamide]
3.2 nM | CCC(=O)N[C@@H](C)[C@H](Oc1ccc2c(cnn2-c2ccc(F)cc2)c1)c1ccccc1 [Example 3, N-((1S,2R)-2-{[1-(4-fluorophenyl)-1H-indazol-5-yl]oxy}-1-methyl-2-phenylethyl)propanamide]
3.2 nM | CCc1cccc([C@@H](Oc2ccc3c(cnn3-c3ccc(F)cc3)c2)[C@H](C)NC(=O)CO)c1 [Example 23, N-[(1R,2S)-1-(3-ethylphenyl)-1-[1-(4-fluorophenyl)indazol-5-yl]oxy-propan-2-yl]-2-hydroxy-acetamide]
2.1 nM | C[C@H](NC(=O)C(C)(C)O)[C@H](Oc1ccc2c(cnn2-c2ccc(F)cc2)c1)c1ccccc1 [Example 5, N-[(1R,2S)-1-[1-(4-fluorophenyl)indazol-5-yl]oxy-1-phenyl-propan-2-yl]-2-hydroxy-2-methyl-propanamide]
2 nM | COCC(=O)N[C@@H](C)[C@H](Oc1ccc2c(cnn2-c2ccc(F)cc2)c1)c1ccc(SC)cc1 [Example 9, N-[(1R,2S)-1-[1-(4-fluorophenyl)indazol-5-yl]oxy-1-(4-methylsulfanylphenyl)propan-2-yl]-2-methoxy-acetamide]
1.7 nM | C[C@H](NC(=O)C(F)(F)F)[C@@H](COc1ccccc1)Oc1ccc2c(cnn2-c2ccc(F)cc2)c1 (single isomer, unassigned) [Example 68, 2,2,2-Trifluoro-N-[(2S*,3S*)-3-[1-(4-fluorophenyl)indazol-5-yl]oxy-4-phenoxy-butan-2-yl]acetamide]
